Assay results reported in patent US20230097157A1, “Bicyclic Pyridin-2-one and pyrimidin-4-one Derivatives Useful As a Factor XIa Inhibitors” (Janssen Pharmaceutica NV, priority 2021, published 2023).
Where two headings read alike, the source gives them in different places.

Assays:
Factor XIa = Factor XIa (Homo sapiens, UniProt P03951); experiment: Factor XIa inhibition assay (FLINT) utilizing a fluorophore-quencher pair peptide substrate 5Fam-[…]-K5Tamra; format: biochemical; conditions: kinetic (KIN) reads, read-out: FXIa KIN Inh IC50
Factor XIa, sequence (P03951 388-625 limits assumed): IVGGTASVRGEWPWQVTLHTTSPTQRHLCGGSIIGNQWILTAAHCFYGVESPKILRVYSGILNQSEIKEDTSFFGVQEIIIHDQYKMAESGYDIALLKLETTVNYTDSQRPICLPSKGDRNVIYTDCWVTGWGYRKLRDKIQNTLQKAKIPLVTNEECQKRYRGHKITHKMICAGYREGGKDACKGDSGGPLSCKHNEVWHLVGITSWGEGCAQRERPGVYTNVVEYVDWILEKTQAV
Factor XIa, sequence (P03951 19-387 partner limits assumed): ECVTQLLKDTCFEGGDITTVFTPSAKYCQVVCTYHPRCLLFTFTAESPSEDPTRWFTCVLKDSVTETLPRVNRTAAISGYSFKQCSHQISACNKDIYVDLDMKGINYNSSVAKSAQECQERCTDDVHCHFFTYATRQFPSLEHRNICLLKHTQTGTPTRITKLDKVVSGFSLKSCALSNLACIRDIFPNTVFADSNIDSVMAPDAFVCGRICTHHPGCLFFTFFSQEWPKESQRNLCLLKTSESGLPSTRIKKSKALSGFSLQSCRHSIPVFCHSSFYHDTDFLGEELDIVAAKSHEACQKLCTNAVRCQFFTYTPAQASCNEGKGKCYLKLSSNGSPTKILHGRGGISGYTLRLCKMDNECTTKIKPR
Method in brief: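 Compounds were tested as 11-point 3-fold dilutions from 100 nM (2% DMSO). They were preincubated 30 min with FXIa in 50 mM Tris pH 7.5, 5 mM CaCl2, then 15 μM fluorophore-quencher peptide was added. Cleavage was followed at 485/520 nm over 30 min, and IC50 was derived by 4-parameter logistic fit.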

human plasma kallikrein = human plasma kallikrein (Homo sapiens, UniProt P03952); experiment: Kallikrein inhibition assay (FLINT) utilizing a quenched AMC peptide substrate Z-Gly-Pro-Arg-AMC; format: biochemical; conditions: kinetic (KIN) reads, read-out: Kallikrein KIN Inh IC50
human plasma kallikrein, sequence (P03952 391-638 limits assumed): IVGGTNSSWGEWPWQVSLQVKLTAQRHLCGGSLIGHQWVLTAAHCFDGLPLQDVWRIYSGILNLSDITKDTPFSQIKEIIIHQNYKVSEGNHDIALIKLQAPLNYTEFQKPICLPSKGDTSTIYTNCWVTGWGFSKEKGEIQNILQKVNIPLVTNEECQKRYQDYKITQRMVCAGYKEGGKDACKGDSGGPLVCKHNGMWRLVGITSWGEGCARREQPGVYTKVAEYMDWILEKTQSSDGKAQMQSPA
human plasma kallikrein, sequence (P03952 20-390 partner limits assumed): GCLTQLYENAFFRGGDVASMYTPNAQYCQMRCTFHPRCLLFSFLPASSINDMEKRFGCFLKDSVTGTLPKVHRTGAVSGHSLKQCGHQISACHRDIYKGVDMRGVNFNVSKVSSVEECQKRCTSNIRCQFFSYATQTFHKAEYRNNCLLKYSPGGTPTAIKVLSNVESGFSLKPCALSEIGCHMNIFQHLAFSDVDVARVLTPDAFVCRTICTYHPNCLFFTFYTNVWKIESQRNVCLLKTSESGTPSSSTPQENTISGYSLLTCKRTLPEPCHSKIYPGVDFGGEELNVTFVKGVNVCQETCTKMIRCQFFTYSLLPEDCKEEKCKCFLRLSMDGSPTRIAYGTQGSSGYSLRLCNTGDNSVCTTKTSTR
Method in brief: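 IC50 from a 4-parameter logistic fit of % inhibition from 11 concentrations (3-fold, top 1 μM, 2% DMSO). Compound pre-incubated 30 min with 2 nM enzyme in Tris pH 7.5, NaCl, CaCl2, BSA, CHAPS, then 50 μM AMC peptide substrate added. Fluorescence (340/440 nm) followed every 5 min for 30 min at room temperature.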

SMILES	IC50 (Factor XIa; values in nM) [nM]	IC50 (human plasma kallikrein; values in nM) [nM]	IC50 (human plasma kallikrein; unit μM) [nM]	IC50 (Factor XIa; unit μM) [nM]
CCO[C@@H]1C[C@@H](c2ncc(-c3ccc(N)nc3F)[nH]2)n2c1cc(-c1c(-n3cnnn3)ccc(Cl)c1F)cc2=O [Example 139, (1R,3S)-3-(5-(6-Amino-2-fluoropyridin-3-yl)-1H-imidazol-2-yl)-7-(3-chloro-2-fluoro-6-(1H-tetrazol-1-yl)phenyl)-1-ethoxy-2,3-dihydroindolizin-5(1H)-one]	0.3	18		
C[C@H]1C[C@@H](c2ncc(-c3ncc(N)nc3F)[nH]2)n2c1nc(-c1c(-n3cnnn3)ccc(Cl)c1F)cc2=O (single isomer, unassigned) [Example 89, (6*S,8S)-6-(5-(5-Amino-3-fluoropyrazin-2-yl)-1H-imidazol-2-yl)-2-(3-chloro-2-fluoro-6-(1H-tetrazol-1-yl)phenyl)-8-methyl-7,8-dihydropyrrolo[1,2-a]pyrimidin-4(6H)-one]	5.1	~45.9		
C[C@H]1C[C@@H](c2ncc(-c3ccc(N)nn3)[nH]2)n2c1cc(-c1c(-n3cnnn3)ccc(Cl)c1F)cc2=O (relative stereo) [Example 10, (1 S*,3S*)-3-(5-(6-Aminopyridazin-3-yl)-1H-imidazol-2-yl)-7-(3-chloro-2-fluoro-6-(1H-tetrazol-1-yl)phenyl)-1-methyl-2,3-dihydroindolizin-5(1H)-one]	18.3	345		
C[C@@H]1C[C@@H](c2ncc(-c3cnc(N)c(F)c3)[nH]2)n2c1cc(-c1c(-n3cnnn3)ccc(Cl)c1F)cc2=O (relative stereo) [Example 62, (1*R,3*S)-3-(5-(6-amino-5-fluoropyridin-3-yl)-1H-imidazol-2-yl)-7-(3-chloro-2-fluoro-6-(1H-tetrazol-1-yl)phenyl)-1-methyl-2,3-dihydroindolizin-5(1H)-one]	19.6	18.1		
C[C@@H]1C[C@H](c2ncc(-c3ccc(N)nc3F)[nH]2)n2c1nc(-c1c(-n3cnnn3)ccc(Cl)c1F)cc2=O (stereo in doubt) [Example 138, (6R*,8R*)-6-(5-(6-Amino-2-fluoropyridin-3-yl)-1H-imidazol-2-yl)-2-(3-chloro-2-fluoro-6-(1H-tetrazol-1-yl)phenyl)-8-methyl-7,8-dihydropyrrolo[1,2-a]pyrimidin-4(6H)-one]	258		4300	
Cc1nc(N)c(F)cc1-c1cnc([C@H]2C[C@H](C)c3nc(-c4c(-n5cnnn5)ccc(Cl)c4F)cc(=O)n32)[nH]1 (relative stereo) [Example 129, (6*R,8*S)-6-(5-(6-Amino-5-fluoro-2-methylpyridin-3-yl)-1H-imidazol-2-yl)-2-(3-chloro-2-fluoro-6-(1H-tetrazol-1-yl)phenyl)-8-methyl-7,8-dihydropyrrolo[1,2-a]pyrimidin-4(6H)-one]	168		1600	
C[C@H]1CC(c2ncc(-c3cnnn3C)[nH]2)n2c1nc(-c1c(-n3cnnn3)ccc(Cl)c1F)cc2=O (stereo in doubt) [Example 136, (6*S,8*S)-2-(3-Chloro-2-fluoro-6-(1H-tetrazol-1-yl)phenyl)-8-methyl-6-(5-(1-methyl-1H-1,2,3-triazol-5-yl)-1H-imidazol-2-yl)-7,8-dihydropyrrolo[1,2-a]pyrimidin-4(6H)-one]	566		> 10000	
C[C@H]1C[C@@H](c2ncc(-c3cc(N)ncc3F)[nH]2)n2c1cc(-c1c(-n3cnnn3)ccc(Cl)c1F)cc2=O [Example 19, (1S,3S)-3-(5-(2-Amino-5-fluoropyridin-4-yl)-1H-imidazol-2-yl)-7-(3-chloro-2-fluoro-6-(1H-tetrazol-1-yl)phenyl)-1-methyl-2,3-dihydroindolizin-5(1H)-one]	25.4	270		
Nc1nsc2cc(-c3cnc([C@@H]4CC5(CC5)c5nc(-c6c(-n7cnnn7)ccc(Cl)c6F)cc(=O)n54)[nH]3)ccc12 [Example 81, (S)-6′-(5-(3-Aminobenzo[d]isothiazol-6-yl)-1H-imidazol-2-yl)-2′-(3-chloro-2-fluoro-6-(1H-tetrazol-1-yl)phenyl)-6′,7′-dihydro-4′H-spiro[cyclopropane-1,8′-pyrrolo[1,2-a]pyrimidin]-4′-one]	0.6	0.9		
C[C@H]1C[C@@H](c2ncc(-c3ccnc(CO)c3F)[nH]2)n2c1cc(-c1c(-n3cnnn3)ccc(Cl)c1F)cc2=O (relative stereo) [Example 2, (1 S*,3S*)-7-(3-Chloro-2-fluoro-6-(1H-tetrazol-1-yl)phenyl)-3-(5-(3-fluoro-2-(hydroxymethyl)pyridin-4-yl)-1H-imidazol-2-yl)-1-methyl-2,3-dihydroindolizin-5(1H)-one]	22	170		
CNC(=O)c1ccc(-c2cnc([C@@H]3C[C@H](C)c4cc(-c5c(-n6cnnn6)ccc(Cl)c5F)cc(=O)n43)[nH]2)cn1 [Example 12, 5-(2-((1S,3S)-7-(3-Chloro-2-fluoro-6-(1H-tetrazol-1-yl)phenyl)-1-methyl-5-oxo-1,2,3,5-tetrahydroindolizin-3-yl)-1H-imidazol-5-yl)-N-methylpicolinamide]	63.7	205		
Nc1ccc(-c2[nH]c(C3CC4(CC4)c4nc(-c5c(-n6cnnn6)ccc(Cl)c5F)cc(=O)n43)nc2F)c(F)n1 (stereo in doubt) [Example 76, (S)-6′-(5-(6-amino-2-fluoropyridin-3-yl)-4-fluoro-1H-imidazol-2-yl)-2′-(3-chloro-2-fluoro-6-(1H-tetrazol-1-yl)phenyl)-6′,7′-dihydro-4′H-spiro[cyclopropane-1,8′-pyrrolo[1,2-a]pyrimidin]-4′-one]	0.8	12.1		
C[C@H]1C[C@@H](c2ncc(-c3ccnc(C#N)c3)[nH]2)n2c1cc(-c1c(-n3cnnn3)ccc(Cl)c1F)cc2=O (relative stereo) [Example 32, 4-(2-((1S,3S)-7-(3-Chloro-2-fluoro-6-(1H-tetrazol-1-yl)phenyl)-1-methyl-5-oxo-1,2,3,5-tetrahydroindolizin-3-yl)-1_H-imidazol-5-yl)picolinonitrile]	11.2	90.7		

Continued, values first:

IC50 (Factor XIa; values in nM) [nM]	IC50 (human plasma kallikrein; values in nM) [nM]	IC50 (human plasma kallikrein; unit μM) [nM]	IC50 (Factor XIa; unit μM) [nM]	SMILES
39	168			C[C@H]1C[C@@H](c2ncc(-c3ncc(N)nc3C3CC3)[nH]2)n2c1nc(-c1c(-n3cnnn3)ccc(Cl)c1F)cc2=O (relative stereo) [Example 91, (6*S,8*S)-6-(5-(5-Amino-3-cyclopropylpyrazin-2-yl)-1H-imidazol-2-yl)-2-(3-chloro-2-fluoro-6-(1H-tetrazol-1-yl)phenyl)-8-methyl-7,8-dihydropyrrolo[1,2-a]pyrimidin-4(6H)-one]
		> 10000	> 10000	C[C@H]1C[C@@H](c2ncc(-c3ccc(N)nc3F)[nH]2)n2c1cc(-c1c(-n3cnnn3)ccc(Cl)c1F)cc2=O (stereo in doubt) [Example 68, (1*S,3*S)-3-(5-(6-Amino-2-fluoropyridin-3-yl)-1H-imidazol-2-yl)-7-(3-chloro-2-fluoro-6-(1H-tetrazol-1-yl)phenyl)-1-methyl-2,3-dihydroindolizin-5(1H)-one]
5.7	31.9			COc1nc(N)cnc1-c1cnc([C@@H]2C[C@H](C)c3nc(-c4c(-n5cnnn5)ccc(Cl)c4F)cc(=O)n32)[nH]1 (relative stereo) [Example 84, (6*S,8*S)-6-(5-(5-Amino-3-methoxypyrazin-2-yl)-1H-imidazol-2-yl)-2-(3-chloro-2-fluoro-6-(1H-tetrazol-1-yl)phenyl)-8-methyl-7,8-dihydropyrrolo[1,2-a]pyrimidin-4(6H)-one]
24.2	44.3			C[C@@H]1C[C@H](c2ncc(-c3ccc4nccn4c3)[nH]2)n2c1cc(-c1c(-n3cnnn3)ccc(Cl)c1F)cc2=O (stereo in doubt) [Example 49, (1R*,3R*)-7-(3-Chloro-2-fluoro-6-(1H-tetrazol-1-yl)phenyl)-3-(5-(imidazo[1,2-a]pyridin-6-yl)-1H-imidazol-2-yl)-1-methyl-2,3-dihydroindolizin-5(1H)-one]
4.4	~236			CC1C[C@@H](c2nc(-c3cnc(N)cn3)c[nH]2)n2c1nc(-c1c(-n3cc(C(F)(F)F)nn3)ccc(Cl)c1F)cc2=O (stereo partly drawn) [Example 80, (6S)-6-(4-(5-aminopyrazin-2-yl)-1H-imidazol-2-yl)-2-(3-chloro-2-fluoro-6-(4-(trifluoromethyl)-1H-1,2,3-triazol-1-yl)phenyl)-8-methyl-7,8-dihydropyrrolo[1,2-a]pyrimidin-4(6H)-one]
0.2	3.5			COC(=O)Nc1ccc(-c2cnc([C@@H]3C[C@H](C)c4cc(-c5c(-n6cnnn6)ccc(Cl)c5F)cc(=O)n43)[nH]2)cc1 [Example 63, Methyl(4-(2-((1S,3S)-7-(3-chloro-2-fluoro-6-(1H-tetrazol-1-yl)phenyl)-1-methyl-5-oxo-1,2,3,5-tetrahydroindolizin-3-yl)-1H-imidazol-5-yl)phenyl)carbamate]
52		> 1000		C[C@H]1C[C@H](c2ncc(-c3ncc(N)nc3C(F)F)[nH]2)n2c1nc(-c1c(-n3cnnn3)ccc(Cl)c1F)cc2=O (relative stereo) [Example 85, (6*R,8*S)-6-(5-(5-Amino-3-(difluoromethyl)pyrazin-2-yl)-1H-imidazol-2-yl)-2-(3-chloro-2-fluoro-6-(1H-tetrazol-1-yl)phenyl)-8-methyl-7,8-dihydropyrrolo[1,2-a]pyrimidin-4(6H)-one]
